Data set [1] is described as follows: cytotoxicity toward NIH3T3 fibroblasts, dose response, counter-screen, cell-based, ATP luminescence, mouse fibroblasts (AID 2010).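 Note: cells exposed to compound for about 90 hours before reading.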 It counts as functional. (A counterscreen serves to expose hits that act by an unwanted route or on another target.)
Data set [2] in a line: inhibitors of intracellular T. cruzi replication, confirmation, NIH3T3 host cells, beta-gal luminescence (AID 2044).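 Note: intracellular parasites grown in NIH/3T3 mouse fibroblasts as host cells; luminescent beta-galactosidase reporter signal from transgenic T. cruzi replicating inside host cells; inhibitors lower the luminescence signal.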 It counts as functional, cell-based.
Data set [3] deals with Cytochrome P450 2D6 (Homo sapiens, UniProt P10635).
For data set [4], the target named is Cytochrome P450 2C19 (Homo sapiens, UniProt P33261). The experiment in a line: Cytochrome panel assay with activity outcomes. Panel member name: p450-cyp2c19 Compounds with AC50 equal or less than 10 uM are considered active. It counts as functional.
The nature of data set [5]: HEp-2 cell cytotoxicity, dose response, cytotoxicity control for RSV inhibitor project, HTS (AID 2410). In kind it is functional. To be noted: human respiratory syncytial virus.
The target of data set [6] is T1, Corticotropin-releasing factor receptor 2/Corticotropin-releasing factor-binding protein (Homo sapiens, UniProt P24387+Q13324).
T1 sequence (Q13324 whole entry): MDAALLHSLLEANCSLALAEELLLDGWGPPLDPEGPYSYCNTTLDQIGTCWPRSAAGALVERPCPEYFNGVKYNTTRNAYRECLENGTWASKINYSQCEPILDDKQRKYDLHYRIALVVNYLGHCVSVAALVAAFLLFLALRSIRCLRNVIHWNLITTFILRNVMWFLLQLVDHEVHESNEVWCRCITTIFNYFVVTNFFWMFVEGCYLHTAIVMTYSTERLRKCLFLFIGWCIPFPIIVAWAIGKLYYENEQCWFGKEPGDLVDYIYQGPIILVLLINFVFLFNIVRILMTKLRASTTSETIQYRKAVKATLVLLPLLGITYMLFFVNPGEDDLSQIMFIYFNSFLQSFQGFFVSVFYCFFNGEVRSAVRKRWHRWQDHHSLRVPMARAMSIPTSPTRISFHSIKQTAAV
T1 sequence (P24387 whole entry): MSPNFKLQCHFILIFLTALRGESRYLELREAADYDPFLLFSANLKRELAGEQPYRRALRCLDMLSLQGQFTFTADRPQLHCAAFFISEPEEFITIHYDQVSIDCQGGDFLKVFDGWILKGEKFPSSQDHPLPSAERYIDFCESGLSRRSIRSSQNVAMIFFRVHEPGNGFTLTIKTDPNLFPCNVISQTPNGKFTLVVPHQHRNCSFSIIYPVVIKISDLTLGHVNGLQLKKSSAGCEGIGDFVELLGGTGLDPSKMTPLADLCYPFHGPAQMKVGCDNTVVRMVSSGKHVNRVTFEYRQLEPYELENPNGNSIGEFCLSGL
The experiment in a line: activators of CRF receptor 2 with binding protein – uHTS hits, confirmation (AID 602473). In kind it is functional. To be noted: read-out: EC50_Mean.

Data set [7] deals with Luciferin 4-monooxygenase (Photinus pyralis, UniProt P08659). The experiment in a line: firefly luciferase enzyme inhibitors, dose response, biochemical, luminescence (AID 1891).
A short description of data set [8]: Luminescence Cell-Based Dose Confirmation HTS to Identify Inhibitors of Platelet Dense Granule Release. [Related pubchem assays: 1663 (Primary HTS), 1678 (Summary of Project)]. It counts as functional.
Data set [9] has as its system Streptococcus. The experiment in a line: Group A Streptococcus viability loss, dose response, counter-screen for streptokinase expression inhibitor project, luminescence, BacTiterGlo (AID 1915).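 Note: potency for reduction of bacterial viability or growth.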 In kind it is functional, organism-based.
In data set [10] the test system is Streptococcus sp. 'group A'. The experiment in a line: growth inhibition of control SK(-) GAS strain, dose response, counter-screen for streptokinase expression inhibitor project, luminescence, kanamycin, BacTiterGlo, confirmation (AID 1900). It counts as functional, organism-based.

Active and inactive are the calls of the source.

Chain of Cytochrome P450 2C19 (P33261 whole entry): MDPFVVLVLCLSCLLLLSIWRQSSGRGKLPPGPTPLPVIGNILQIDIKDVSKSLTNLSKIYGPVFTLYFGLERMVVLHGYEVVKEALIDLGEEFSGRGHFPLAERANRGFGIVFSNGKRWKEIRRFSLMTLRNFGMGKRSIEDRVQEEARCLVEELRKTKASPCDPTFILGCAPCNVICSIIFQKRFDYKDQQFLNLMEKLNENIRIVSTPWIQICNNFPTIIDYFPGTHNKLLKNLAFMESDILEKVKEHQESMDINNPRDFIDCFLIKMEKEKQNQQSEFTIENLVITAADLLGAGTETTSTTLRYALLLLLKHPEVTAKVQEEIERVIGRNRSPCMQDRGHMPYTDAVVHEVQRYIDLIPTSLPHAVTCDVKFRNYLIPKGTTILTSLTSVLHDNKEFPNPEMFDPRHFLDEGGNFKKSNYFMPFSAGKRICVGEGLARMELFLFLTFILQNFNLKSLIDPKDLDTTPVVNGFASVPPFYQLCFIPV
Chain of Luciferin 4-monooxygenase (P08659 whole entry): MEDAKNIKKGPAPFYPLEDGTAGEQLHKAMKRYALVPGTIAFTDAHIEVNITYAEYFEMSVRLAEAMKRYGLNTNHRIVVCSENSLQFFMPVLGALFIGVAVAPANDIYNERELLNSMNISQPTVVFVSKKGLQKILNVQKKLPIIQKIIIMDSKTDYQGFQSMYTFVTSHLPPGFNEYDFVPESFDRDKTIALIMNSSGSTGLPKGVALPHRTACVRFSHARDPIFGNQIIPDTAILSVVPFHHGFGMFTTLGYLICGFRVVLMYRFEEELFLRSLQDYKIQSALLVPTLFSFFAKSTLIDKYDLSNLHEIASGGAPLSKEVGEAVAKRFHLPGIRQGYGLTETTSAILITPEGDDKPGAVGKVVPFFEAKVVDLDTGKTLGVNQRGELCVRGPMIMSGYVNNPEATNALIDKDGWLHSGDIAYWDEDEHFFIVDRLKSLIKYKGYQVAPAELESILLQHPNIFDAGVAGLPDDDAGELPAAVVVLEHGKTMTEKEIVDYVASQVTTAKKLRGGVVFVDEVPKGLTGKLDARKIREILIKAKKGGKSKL
Chain of Cytochrome P450 2D6 (P10635 whole entry): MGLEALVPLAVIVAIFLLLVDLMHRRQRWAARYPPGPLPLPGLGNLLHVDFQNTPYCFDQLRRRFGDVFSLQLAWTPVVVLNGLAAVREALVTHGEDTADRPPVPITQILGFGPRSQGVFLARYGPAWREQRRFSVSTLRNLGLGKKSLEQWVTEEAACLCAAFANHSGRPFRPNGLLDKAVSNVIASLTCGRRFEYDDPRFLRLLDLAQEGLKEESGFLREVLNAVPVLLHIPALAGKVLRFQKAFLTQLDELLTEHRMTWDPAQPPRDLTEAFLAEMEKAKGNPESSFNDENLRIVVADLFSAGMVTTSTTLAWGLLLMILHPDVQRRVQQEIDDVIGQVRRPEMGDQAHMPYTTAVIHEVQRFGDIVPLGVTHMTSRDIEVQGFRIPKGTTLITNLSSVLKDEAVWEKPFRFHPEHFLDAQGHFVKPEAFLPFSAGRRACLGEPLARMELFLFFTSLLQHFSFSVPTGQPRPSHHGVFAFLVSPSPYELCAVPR

For `Cc1nn(C)c(Cl)c1CN1CCCC(CCC(=O)NCc2ccccc2F)C1` (stereo not drawn), the EC50 is > 30 µM (not active) in [1] and 0.181 µM (active) in [2].
In the case of `Cc1nc2c(C(=O)NCc3ccco3)cnn2c(C)c1Cc1ccc(F)cc1Cl`, the EC50 is > 30 µM (not active) in [1] and 2.17 µM (active) in [2].
On to `Cc1cc2cc3c(cc2nc1SCC(=O)Nc1c(C)cccc1C)CCC3`, for which the AC50 (commonly the concentration giving half of the maximal activity seen) in data set [3] is 14.1 µM (inconclusive).
Consider `O=C1OCCC=C1[C@@H](O)CCc1ccccc1`, for which the concentration at half-maximal activity (AC50) in data set [4] (read-out: AC50) is 0.316 µM (inconclusive).
For `CC1CCCCN1S(=O)(=O)c1ccc(S(=O)(=O)N(Cc2ccccc2)Cc2ccco2)cc1` (stereo not drawn), the figures for the EC50 in data set [1] and in data set [2] were > 60 µM (not active) and 1.09 µM (active), respectively.
On to `COc1ccc(N(CC(=O)NCCC2=CCCCC2)S(=O)(=O)c2ccccc2)cc1OC`, for which the EC50 in [1] is > 60 µM (not active); in [2], 3.35 µM (active).
On to `COc1ccc(-c2noc(CCCC(=O)NCC3CCCO3)n2)cc1` (stereo not drawn), for which, in [5], the CC50 – broadly, the concentration at which the toxic effect on the cells reaches its halfway point – was 30.3 µM (active).
The same measure, in the same setting: as for `Cc1ccc(C)c(OCC(O)CN2CCc3ccccc3C2)c1C` (stereo not drawn), the figure is 46.3 µM (active).
In the case of `Cc1ccc(NC(=O)C(=O)NCc2ccc(/C=C(/C#N)C(=O)NCc3cccnc3)o2)cc1`, in [4] (read-out: AC50), the half-maximal activity concentration (AC50) was 7.08 µM (inconclusive).
With `CCc1ccc(C(C(=O)NCc2ccc(OC)cc2)N(CCOC)C(=O)Cc2cccs2)cc1` (stereo not drawn), the AC50 in [3] is 25.1 µM (inconclusive).
As to `Nc1nn(S(=O)(=O)c2ccccc2)cc1-c1cccc([N+](=O)[O-])c1`, the EC50 in data set [1] was > 60 µM (not active); in data set [2] it was 1.83 µM (active).
In the case of `O=C(CCCc1ccccn1)c1ccccc1`, the AC50 in data set [4] (read-out: AC50) is 2.51 µM (inconclusive).
As to `c1ccc(-c2cc3c(N4CCCC4)ncnc3s2)cc1`, in data set [5], the CC50 was > 50 µM (active).
For `O=C(c1ccc(Cl)cc1)C1CCCN(Cc2cnn(-c3ccccc3)c2)C1` (stereo not drawn), the EC50 was > 60 µM (inconclusive) in data set [1] and 0.503 µM (active) in [2].
As for `Cn1c(=O)c2c(SCC(=O)N3CCCc4ccccc43)nc(CC(C)(C)C)nc2n(C)c1=O`, in data set [5], the CC50 is > 50 µM (active).
Turning to `CCOc1ccccc1C1c2[nH]c3ccccc3c2C[C@H]2C(=O)N(C3CCN(Cc4ccccc4)CC3)CC(=O)N12` (stereo partly drawn), the results for the EC50 in [1] and in [2] were > 60 µM (not active) and 2.15 µM (active), respectively.
With `O=C(c1cccc(F)c1)N1CCC2(CCCN(Cc3ccccc3)C2)CC1`, the concentration at half-maximal activity (AC50) in [3] is 10 µM (inconclusive).
Take `CCOC(=O)c1c(NC(=O)CN2C(=O)NC3(CCCCC3C)C2=O)sc(C)c1CC` (stereo not drawn): the EC50 is > 60 µM (not active) in data set [1] and 2.37 µM (active) in [2].
On to `CCN(CC)S(=O)(=O)c1ccc(NN=C2CCN(C)CC2)c([N+](=O)[O-])c1`, for which the EC50 in [1] is > 60 µM (not active); in [2], 0.482 µM (active).
As to `COc1cc(OC)c(OC)cc1/C=C1/Cc2ccccc2C1=O`, the EC50 in data set [6] was 5.48 µM (active).
Regarding `COc1cccc(-c2cc(C(=O)Nc3ccc(N(C)C(C)=O)cc3)c3cc(Br)ccc3n2)c1`, the values for the EC50 in [1] and in [2] were > 60 µM (not active) and 1.83 µM (active), respectively.
In the case of `CCOCCCN1C(=O)CN(C2CCC(C)CC2)C(=O)C1c1ccc(C)cc1` (stereo not drawn), the EC50 in [7] and in data set [8] was > 112 µM (not active) each time.
For `O=C(Nc1cccc(F)c1)N1CCC2(CCNCC2)CC1`, the AC50 was 12.6 µM (inconclusive) in [3] and 20 µM (inconclusive) in [4] (read-out: AC50).
Turning to `COc1ccc(Cl)cc1Nc1nc(-c2sc(NC(=O)c3ccco3)nc2C)cs1`, in data set [5], the CC50 was 35.4 µM (active).
In the case of `N#Cc1c(-c2ccc3c(c2)OCO3)ccn2nc(-c3cccc(C(F)(F)F)c3)nc12`, the AC50 in data set [3] is 3.16 µM (inconclusive).
On to `CNc1ccc(Oc2nc([N+](=O)[O-])nn2C)cc1`, for which the EC50 in data set [1] is > 60 µM (not active); in data set [2], 1.43 µM (active).
For the compound `COC(=O)c1c(NC(=O)CN2C(=O)NC3(CCC(C(C)(C)C)CC3)C2=O)sc2c1CCCCC2` (stereo not drawn), the EC50 in [1] was > 60 µM (not active); in data set [2] it was 3.11 µM (active).
For `O=C(Nc1ncc(Cc2ccc(Cl)cc2Cl)s1)c1ccc([N+](=O)[O-])cc1`, the EC50 in [6] was > 53 µM (inactive).
Take `CN(C)CCOC(=O)C1(c2ccccc2)CCCC1`: the EC50 in [7] and in data set [8] was > 112 µM (not active) each time.
As for `c1ccc2c(N3CCCCCC3)nc(-c3ccncc3)nc2c1`, in [5], the CC50 was 15.9 µM (active).
As to `CC(=O)OCCN1C(=O)c2cccc3cc([N+](=O)[O-])cc(c23)C1=O`, the EC50 in data set [1] is > 30 µM (not active); in data set [2], 0.358 µM (active).
With `O=C(O)CC1(CC(=O)O)Nc2ccccc2SC1=O`, the AC50 result in data set [4] is “inconclusive”.
On to `CSc1scc2c1-c1nc(SCC(=O)C(C)(C)C)ncc1CC2`, for which the CC50 in data set [5] was 20.6 µM (active).
`CCc1ccc2nc(O)c(CN(Cc3ccccc3)C(=O)Nc3ccccc3OC)cc2c1`: the EC50 in [1] is > 60 µM (not active); in [2], 1.93 µM (active).
Turning to `COc1ccc(-n2nc3c(N4CCC(C(=O)N5CCCCCC5)CC4)nnc(C)c3c2C)cc1`, the results for the EC50 in data set [1] and in [2] were > 60 µM (not active) and 0.858 µM (active), respectively.
For `COC(=O)[C@@]1(Cc2ccc(OC)cc2)[C@H]2c3cc(C(=O)N(C)C)n(C)c3C[C@H]2CN1C(=O)c1ccccc1`, the AC50 in data set [4] (read-out: AC50) was 25.1 µM (inconclusive).
`COC(=O)Cn1c(=N)n(CCN2CCCCC2)c2ccccc21`: the AC50 in data set [3] was 44.7 µM (inconclusive).
Turning to `Sc1ncnc2c1sc1nc(N3CCOCC3)c3c(c12)CCCC3`, the CC50 in data set [5] is > 50 µM (active).
As to `CCOC(=O)/C=c1/s/c(=C/c2ccc3cc(OC)ccc3c2)c(=O)n1CC(=O)NCc1ccc2c(c1)OCO2`, in data set [6], the EC50 is 4.9 µM (active).
Consider `COc1cc(C)c(C)cc1S(=O)(=O)N1CCCc2ccccc21`, for which the EC50 in data set [6] was 5.44 µM (active).
For the compound `COc1cc(N2CCOCC2)ncn1`, the AC50 in data set [4] (read-out: AC50) is 0.00562 µM (inconclusive).
For `Cc1cccc(OCC(=O)NNC(=O)CSc2ncc(C#N)c(N)n2)c1`, the AC50 in data set [3] was 4.47 µM (inconclusive); in data set [4] (read-out: AC50) it was 15.8 µM (inconclusive).
Consider `Nc1cccc2c1Cc1cc([N+](=O)[O-])ccc1-2`, for which the EC50 in data set [6] is > 53 µM (inactive).
Consider `Fc1ccc(/C=N/Nc2nccnc2Cl)cc1`, for which the figures for the EC50 in [7] and in data set [8] were 8.1 µM (active) and 1.65 µM (active), respectively.
As to `Cc1c(/C=N/NC(=O)C(NC(=O)c2ccc3c(c2)OCO3)C(C)C)c2ccccc2n1C` (stereo not drawn), the EC50 in [6] is 1.24 µM (active).
With `CC(=O)c1sc(N/N=C\c2c(O)ccc3ccccc23)nc1C`, the results for the EC50 in data set [9] and in data set [10] were 7.49 µM (active) and 4.07 µM (active), respectively.
For the compound `CN(C)c1ccc(/C=N/N=C(N)N)cc1[N+](=O)[O-]`, the EC50 is > 60 µM (not active) in data set [1] and 0.144 µM (active) in data set [2].
With `NC(=S)N/N=C/c1ccc(-c2cc(Cl)cc(Cl)c2)o1`, the results for the EC50 in data set [1] and in [2] were > 60 µM (not active) and 2.67 µM (active), respectively.
As to `COc1cc(O)oc1/C=N/c1ccc(Cl)cc1`, the AC50 in data set [3] was 14.1 µM (inconclusive).
On to `C[C@@H]1CN(CCCn2c3ccccc3c3ccccc32)C[C@H](C)N1` [RIMCAZOLE], for which, in [3], the AC50 is 15.8 µM (inconclusive).

Values taken from ChEMBL document CHEMBL1201862, “PubChem BioAssay data set” (2004).
